Results on 18 molecules are retold here after ChEMBL document CHEMBL4043225, “Identification of potent, nonabsorbable agonists of the calcium-sensing receptor for GI-specific administration” (Bioorg Med Chem Lett, 2017).

Broadly, the half-life is the time in which the quantity being followed falls by half. Broadly, the Cmax is the highest concentration seen after dosing.

For data set [1], the target named is T1, Extracellular calcium-sensing receptor (Homo sapiens) (UniProt P41180).
T1 sequence (whole entry): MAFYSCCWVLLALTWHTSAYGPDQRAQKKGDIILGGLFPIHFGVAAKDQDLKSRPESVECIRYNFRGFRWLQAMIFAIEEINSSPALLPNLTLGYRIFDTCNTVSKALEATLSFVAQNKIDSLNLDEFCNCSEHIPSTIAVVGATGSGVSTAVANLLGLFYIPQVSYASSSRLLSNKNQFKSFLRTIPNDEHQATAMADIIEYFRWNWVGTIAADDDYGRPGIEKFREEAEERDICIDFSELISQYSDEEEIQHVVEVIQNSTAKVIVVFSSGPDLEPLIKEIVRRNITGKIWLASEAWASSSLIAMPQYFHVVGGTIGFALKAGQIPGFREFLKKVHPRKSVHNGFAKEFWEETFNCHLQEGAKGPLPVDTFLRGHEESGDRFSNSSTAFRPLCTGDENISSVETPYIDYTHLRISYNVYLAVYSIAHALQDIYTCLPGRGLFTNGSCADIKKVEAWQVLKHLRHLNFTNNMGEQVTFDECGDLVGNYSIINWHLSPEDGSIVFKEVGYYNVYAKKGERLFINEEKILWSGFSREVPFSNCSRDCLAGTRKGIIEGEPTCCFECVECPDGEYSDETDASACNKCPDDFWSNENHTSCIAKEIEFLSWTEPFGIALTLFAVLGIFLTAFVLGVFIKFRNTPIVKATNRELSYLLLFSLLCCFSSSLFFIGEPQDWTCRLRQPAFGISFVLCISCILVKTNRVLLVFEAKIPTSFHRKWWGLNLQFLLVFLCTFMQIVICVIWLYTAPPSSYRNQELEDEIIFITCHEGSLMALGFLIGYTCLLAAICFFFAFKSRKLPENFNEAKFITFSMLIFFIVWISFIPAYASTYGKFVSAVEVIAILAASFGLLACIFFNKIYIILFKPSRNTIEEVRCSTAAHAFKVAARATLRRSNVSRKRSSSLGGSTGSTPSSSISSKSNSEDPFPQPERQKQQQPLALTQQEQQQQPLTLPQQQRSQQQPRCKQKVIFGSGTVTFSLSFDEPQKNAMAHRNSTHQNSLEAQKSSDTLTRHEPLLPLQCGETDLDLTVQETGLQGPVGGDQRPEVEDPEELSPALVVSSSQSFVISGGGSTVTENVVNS
As to the kind of experiment: (§1) Agonist activity at human CaSR expressed in HEK293 cells assessed as increase in intracellular calcium mobilization by fluo-4AM dye based FLIPR assay. The class given is functional, cell-based.

The target of data set [2] is T2, Extracellular calcium-sensing receptor (Homo sapiens, UniProt P41180).
T2 sequence (P41180 whole entry): T1 sequence (whole entry)
Described as §1. The class given is functional, cell-based. The conditions noted are these: read-out: pEC50 (converted).

The nature of data set [3]: Half-life in Sprague-Dawley rat cecal homogenates at 10 uM by LC-MS/MS analysis. The class given is ADME, tissue-based, Caecum.
A short description of data set [4]: Cmax in CD rat portal vein at 30 mg/kg, po administered via gavage. The format is ADME, organism-based. More on the design: dose 30 mg/kg, route oral.
Data set [5] can be described thus: Cmax in CD rat systemic circulation at 30 mg/kg, po administered via gavage. More on the design: dose 30 mg/kg, route oral. The class given is ADME, organism-based.
Data set [6] is described as follows: Cmax in CD rat portal vein at 50 mg/kg, po administered via gavage. Also noted: dose 50 mg/kg, route oral. The format is ADME, organism-based.
Data set [7] can be described thus: Cmax in CD rat systemic circulation at 50 mg/kg, po administered via gavage. The class given is ADME, organism-based. Also noted: dose 50 mg/kg, route oral.
Data set [8] in a line: Drug recovery in CD rat feces at 30 mg/kg, po administered via gavage measured by LC-MS/MS analysis. The conditions noted are these: read-out: Drug recovery. The class given is ADME, organism-based.

Some results are limits rather than exact numbers.

On to `C[C@@H](N[C@H]1CCN(c2ccc(S(=O)(=O)NCCn3cnc(C(=O)O)c3C(=O)O)cc2)C1)c1cccc2ccccc12`, for which the %max in data set [1] amounted to 127%. For the same molecule, the EC50 in data set [2] is 7.94 nM.

Turning to `C[C@@H](N[C@H]1CCN(c2ccc(C(=O)NCCCCNC(CO)(CO)CO)cc2)C1)c1cccc2ccccc12`, in data set [1], the %max turned out to be 92%. Further, the EC50 in data set [2] is 15.8 nM. In data set [3], this molecule showed a half-life at 10 µM of 8 h. The Cmax in data set [4] worked out at 540 ng/mL; in data set [5], 440 ng/mL.

As for `C[C@@H](N[C@H]1CCN(c2ccc(C(=O)NC(CO)(CO)CO)cc2)C1)c1cccc2ccccc12`, in data set [1], the %max is 80%. Further, the EC50 in data set [2] is 39.8 nM. This molecule yielded a half-life at 10 µM in data set [3] of more than 12 h.

On to `C[C@@H](N[C@H]1CCN(c2ccc(S(=O)(=O)NC(=O)CCC(=O)O)cc2)C1)c1cccc2ccccc12`, for which the %max in data set [1] was determined as 74%. For the same molecule, the EC50 in data set [2] was 501 nM. In data set [3], this molecule showed a half-life at 10 µM of 10.5 h.

Consider `C[C@@H](N[C@H]1CCN(c2ccc(C(=O)NCCS(=O)(=O)O)cc2)C1)c1cccc2ccccc12`, for which, in data set [1], the %max is 85%. For the same molecule, in data set [2], the EC50 was 39.8 nM. The half-life at 10 µM in data set [3] was 0.8 h.

As to `C[C@@H](N[C@H]1CCN(c2ccc(S(=O)(=O)NC(=O)CC(=O)O)cc2)C1)c1cccc2ccccc12`, in data set [1], the %max was found to be 79%. In data set [2], the EC50 is 1580 nM.

Regarding `C[C@@H](N[C@H]1CCN(c2ccc(C(=O)NCC[N+](C)(C)C)cc2)C1)c1cccc2ccccc12.[Cl-]`, in data set [1], the %max worked out at 83%. The EC50 in data set [2] is 126 nM. In data set [3], this molecule displayed a half-life at 10 µM of more than 12 h. Moreover, the Cmax in data set [6] is 164 ng/mL; in data set [7], 154 ng/mL.

Take `C[C@@H](N[C@H]1CCN(c2ccc(S(=O)(=O)NCC(=O)O)cc2)C1)c1cccc2ccccc12`: in data set [1], the %max came out at 83%. In data set [2], the EC50 is 39.8 nM. Besides, in data set [3], the half-life at 10 µM was more than 12 h. The Cmax in data set [6] came to 1120 ng/mL; in data set [7], 317 ng/mL.

Take `C[C@@H](N[C@H]1CCN(c2ccc(C(=O)NCC(=O)O)cc2)C1)c1cccc2ccccc12`: the %max in data set [1] came to 69%. The EC50 in data set [2] was 79.4 nM.

On to `C[C@@H](N[C@H]1CCN(c2ccc(C(=O)NCCNC(CO)(CO)CO)cc2)C1)c1cccc2ccccc12`, for which the %max in data set [1] was determined as 101%. Moreover, the EC50 in data set [2] was 7.94 nM. In data set [3], this molecule had a half-life at 10 µM of 3.4 h.

Turning to `C[C@@H](N[C@H]1CCN(c2ccc(S(=O)(=O)NCCN(C)C)cc2)C1)c1cccc2ccccc12`, the %max in data set [1] is 84%. For the same molecule, the EC50 in data set [2] was 12.6 nM.

For the molecule `C[C@@H](N[C@H]1CCN(c2ccc(C(=O)NCCn3cnc(C(=O)O)c3C(=O)O)cc2)C1)c1cccc2ccccc12`, the %max in data set [1] was found to be 96%. The EC50 in data set [2] was 5.01 nM. The half-life at 10 µM in data set [3] was 7.8 h. The Cmax in data set [4] is 6 ng/mL; in data set [5] it was less than 4 ng/mL. Also, the dose excreted in data set [8] came to 54%.

Regarding `C[C@@H](N[C@H]1CCN(c2ccc(C(=O)N[C@H](CCCCN)C(=O)O)cc2)C1)c1cccc2ccccc12`, the %max in data set [1] is 96%. For the same molecule, the EC50 in data set [2] is 100 nM. The molecule further showed a half-life at 10 µM in data set [3] of 4.3 h.

On to `C[C@@H](N[C@H]1CCN(c2ccc(P(=O)(O)O)cc2)C1)c1cccc2ccccc12`, for which the %max in data set [1] is 70%. Also, in data set [2], the EC50 was 3160 nM.

`C[C@@H](N[C@H]1CCN(c2ccc(C(=O)O)cc2)C1)c1cccc2ccccc12`: in data set [1], the %max is 84%. Moreover, in data set [2], the EC50 is 158 nM. This molecule also registered a half-life at 10 µM in data set [3] of more than 12 h.

Regarding `C[C@@H](N[C@H]1CCN(c2ccc(C(=O)NCCN)cc2)C1)c1cccc2ccccc12`, in data set [1], the %max is 75%. In data set [2], the EC50 was 12.6 nM.

As to `C[C@@H](N[C@H]1CCN(c2ccc(S(N)(=O)=O)cc2)C1)c1cccc2ccccc12`, the %max in data set [1] is 87%. In addition, in data set [2], the EC50 was 20 nM. In data set [3], this molecule displayed a half-life at 10 µM of more than 12 h.

In the case of `C[C@@H](N[C@H]1CCN(c2ccc(C(=O)N[C@H](CC(=O)O)C(=O)O)cc2)C1)c1cccc2ccccc12`, the %max in data set [1] is 79%. Besides, in data set [2], the EC50 is 398 nM. This molecule gave a half-life at 10 µM in data set [3] of 9.1 h. Moreover, the maximum concentration (Cmax) in data set [4] was found to be 12 ng/mL; in data set [5] it was 9 ng/mL. The dose excreted in data set [8] is 65%.
